# How the values were obtained:
# Format in all cases: cell-based
# [1] = molecular target: T1, human somatostatin receptor subtype 2 (Homo sapiens, UniProt P30874); assay: Functional assay for SSTR2 agonists (HTRF cAMP); conditions: CHO-K1 cells stably expressing human SST2; NKH477-stimulated cAMP; 20 min at 37 C; read-out: hSST2 cAMP Avg EC50
# T1 construct: expressed in transfected cells
# Outline: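 CHO-K1 cells stably expressing human SSTR2 treated with compound (typically 0-10,000 nM final) for 20 min at 37 °C. Lysate cAMP measured by HTRF (665/620 nm ratio), converted via standard curve; EC50 from cAMP vs concentration.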
# SST2 = molecular target: T2, SST2 (Homo sapiens, UniProt P30874); assay: PathHunter CHO-K1 SST2 Internalization Assay; conditions: PathHunter CHO-K1 SST2 cells; 90 min at 37 C; luminescence; read-out: Internalization EC50
# T2 construct: host or cells: PathHunter CHO-K1 SST2 cells
# T2 sequence (P30874 whole entry): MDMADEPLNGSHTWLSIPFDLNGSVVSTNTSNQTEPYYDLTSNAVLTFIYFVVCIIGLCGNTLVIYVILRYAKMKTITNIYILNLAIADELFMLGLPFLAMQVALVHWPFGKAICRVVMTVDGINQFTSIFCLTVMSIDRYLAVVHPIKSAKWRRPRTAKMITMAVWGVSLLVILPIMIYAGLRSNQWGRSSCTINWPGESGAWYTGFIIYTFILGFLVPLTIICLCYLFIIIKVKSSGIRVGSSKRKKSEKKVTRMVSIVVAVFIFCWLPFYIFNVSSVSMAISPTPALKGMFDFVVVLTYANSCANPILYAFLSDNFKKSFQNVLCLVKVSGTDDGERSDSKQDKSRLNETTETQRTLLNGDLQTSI
# Outline: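 CHO-K1 cells expressing human SST2, 2500 cells/well, grown 48 h, then exposed 90 min at 37 C to 11-point 1:3 NDC dilutions (final top 10 uM). Beta-Glo luminescence after 60 min at room temperature; four-parameter IC50, duplicate mean, background-corrected.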
# [2] = system: NCI-H524 human small cell lung cancer cells; assay: H524 assay: inhibition of cell proliferation (CellTiter Glo); conditions: 2 h treatment, washout, additional 70 h incubation
# Outline: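 NCI-H524 cells were exposed for 2 h to NDC in an 11-point two-fold series starting at 1 uM. The drug was then washed out and cells grew a further 70 h. CellTiter Glo luminescence gave % inhibition versus untreated control, and IC50 came from a four-parameter nonlinear regression.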
# T1 sequence (P30874 whole entry): as above
Structure (SMILES),EC50 [1] [nM],EC50 (SST2) [nM],EC50 [2] [nM]
CC[C@H](C)[C@@H]([C@@H](CC(=O)N1CCC[C@H]1[C@H](OC)[C@@H](C)C(=O)N[C@H](C)[C@@H](O)c1ccccc1)OC)N(C)C(=O)[C@@H](NC(=O)[C@H](C(C)C)N(C)C(=O)OCc1ccc(NC(=O)[C@H](CCCNC(N)=O)NC(=O)[C@@H](NC(=O)C[C@@H](N)C(=O)NCCOCCC(=O)NCCNc2ncc(-c3cc(C)cc(F)c3)c(N3CCC(N)CC3)c2-c2nc3ccc(Cl)cc3[nH]2)C(C)C)c(O[C@@H]2O[C@H](C(=O)N[C@@H](CCCCNC(=O)CCCCc3ccc(I)cc3)C(=O)O)[C@@H](O)[C@H](O)[C@H]2O)c1)C(C)C [Compound 211],0.19,3.2,89
CC[C@H](C)[C@@H]([C@@H](CC(=O)N1CCC[C@H]1[C@H](OC)[C@@H](C)C(=O)N[C@H](C)[C@@H](O)c1ccccc1)OC)N(C)C(=O)[C@@H](NC(=O)[C@H](C(C)C)N(C)C(=O)OCc1ccc(NC(=O)[C@H](C)NC(=O)[C@@H](NC(=O)C2(C(=O)NCCOCCC(=O)NCCNc3ncc(-c4cc(C)cc(F)c4)c(N4CCC(N)CC4)c3-c3nc4ccc(Cl)cc4[nH]3)CCC2)C(C)C)cc1C(=O)NCCN)C(C)C [Compound 82],0.26,13,6.6
CC[C@H](C)[C@@H]([C@@H](CC(=O)N1CCC[C@H]1[C@H](OC)[C@@H](C)C(=O)N[C@H](C)[C@@H](O)c1ccccc1)OC)N(C)C(=O)[C@@H](NC(=O)[C@H](C(C)C)N(C)C(=O)OCc1ccc(NC(=O)[C@H](CCCNC(N)=O)NC(=O)[C@@H](NC(=O)CCOCCC(=O)NCCCNc2ncc(-c3cc(C)cc(F)c3)c(N3CCC(N)CC3)c2-c2nc3ccc(Cl)cc3[nH]2)C(C)C)c(O[C@@H]2O[C@H](C(=O)O)[C@@H](O)[C@H](O)[C@H]2O)c1)C(C)C [Compound 195],0.35,4.1,8.5
CC[C@H](C)[C@@H]([C@@H](CC(=O)N1CCC[C@H]1[C@H](OC)[C@@H](C)C(=O)N[C@H](C)[C@@H](O)c1ccccc1)OC)N(C)C(=O)[C@@H](NC(=O)[C@H](C(C)C)N(C)C(=O)OCc1ccc(NC(=O)[C@H](CCCNC(N)=O)NC(=O)[C@@H](NC(=O)c2cc(NCCCCCC(=O)NCCNc3ncc(-c4cc(C)cc(F)c4)c(N4CCC(N)CC4)c3-c3nc4ccc(F)cc4[nH]3)cc(C(=O)NCC(=O)O)c2)C(C)C)cc1)C(C)C [Compound 167],0.24,13,150
